Results published in the supplement of paper PMC10307832.

What was measured:
Assay in all cases: relative viability (nuclei count vs DMSO), 5 days (fraction); higher = more cells survive
[1] = compound: COC1=CC=C(C=C1)CN2C=CC3=C2C=C(C=C3)C(=O)NO + C[C@@H](Oc1cc(-c2cnn(C3CCNCC3)c2)cnc1N)c1c(Cl)ccc(F)c1Cl [Crizotinib] (partner 1 µM)
Summary of the method: (§1)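 For relative viability, nuclei counts in treated wells were divided by those in vehicle wells. Lung cancer cell lines had been pin-tool dosed in 1536-well plates the day after seeding and cultured for 5 days, then fixed and stained in one step (final 0.05% Triton X-100, 1% formaldehyde, 1 ug/ml Hoechst) and imaged at 4×. Doses were one drug alone or a fixed anchor-drug dose plus five library-drug doses (not always all listed) in √10 steps, and values are duplicate-plate medians.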

Veliparib + Dasatinib = compound: C[C@]1(c2nc3c(C(N)=O)cccc3[nH]2)CCCN1 [Veliparib] + Cc1nc(Nc2ncc(C(=O)Nc3c(C)cccc3Cl)s2)cc(N2CCN(CCO)CC2)n1 [Dasatinib] (partner 0.075 µM)
Summary of the method: as §1

Veliparib + Luminespib = compound: C[C@]1(c2nc3c(C(N)=O)cccc3[nH]2)CCCN1 [Veliparib] + CCNC(=O)c1noc(-c2cc(C(C)C)c(O)cc2O)c1-c1ccc(CN2CCOCC2)cc1 [Luminespib] (partner 0.01 µM)
Summary of the method: as §1

Veliparib + Navitoclax = compound: C[C@]1(c2nc3c(C(N)=O)cccc3[nH]2)CCCN1 [Veliparib] + CC1(C)CCC(c2ccc(Cl)cc2)=C(CN2CCN(c3ccc(C(=O)NS(=O)(=O)c4ccc(N[C@H](CCN5CCOCC5)CSc5ccccc5)c(S(=O)(=O)C(F)(F)F)c4)cc3)CC2)C1 [Navitoclax] (partner 0.5 µM)
Summary of the method: as §1

Row | Cell Line | relative viability ([1]; first compound 0.08 µM) | relative viability ([1]; first compound 0.253 µM) | relative viability ([1]; first compound 0.8 µM) | relative viability ([1]; first compound 2.53 µM) | relative viability ([1]; first compound 8 µM) | relative viability (Veliparib + Dasatinib; first compound 0.02 µM) | relative viability (Veliparib + Dasatinib; first compound 0.06325 µM) | relative viability (Veliparib + Dasatinib; first compound 0.2 µM) | relative viability (Veliparib + Dasatinib; first compound 0.6325 µM) | relative viability (Veliparib + Dasatinib; first compound 2 µM) | relative viability (Veliparib + Luminespib; first compound 0.02 µM) | relative viability (Veliparib + Luminespib; first compound 0.06325 µM) | relative viability (Veliparib + Luminespib; first compound 0.2 µM) | relative viability (Veliparib + Luminespib; first compound 0.6325 µM) | relative viability (Veliparib + Luminespib; first compound 2 µM) | relative viability (Veliparib + Navitoclax; first compound 0.02 µM) | relative viability (Veliparib + Navitoclax; first compound 0.06325 µM) | relative viability (Veliparib + Navitoclax; first compound 0.2 µM) | relative viability (Veliparib + Navitoclax; first compound 0.6325 µM) | relative viability (Veliparib + Navitoclax; first compound 2 µM)
1 | LXF-289 | 0.317 | 0.827 | 0.827 | 0.803 | 0.793 | 0.251 | 0.2 | 0.251 | 0.204 | 0.224 | 0.652 | 0.712 | 0.759 | 0.545 | 0.601 | 0.932 | 0.948 | 0.931 | 0.888 | 0.968
2 | NCI-H23 | 0.481 | 0.708 | 0.445 | 0.343 | 0.401 | 0.622 | 0.71 | 0.753 | 0.75 | 0.87 | 0.168 |  | 0.251 | 0.24 | 0.228 | 0.884 | 0.772 | 0.828 | 0.81 | 0.791
3 | NCI-H322M |  | 0.816 | 0.98 | 0.851 | 0.793 |  | 0.231 | 0.246 | 0.27 | 0.253 |  | 0.814 | 0.915 | 0.855 | 0.848 | 1.21 | 1.04 | 1.19 | 1.23 | 1.2
4 | NCI-H441 | 1.25 | 0.835 | 0.862 | 0.787 | 0.597 | 0.502 | 0.572 | 0.591 | 0.558 | 0.691 | 0.316 | 0.288 | 0.377 | 0.339 | 0.375 | 0.701 | 0.478 | 0.667 | 0.501 | 0.387
5 | NCI-H460 | 0.774 | 0.959 | 0.846 | 0.882 | 0.917 | 0.456 | 0.393 | 0.419 | 0.466 | 0.479 | 0.0408 | 0.0256 | 0.0384 | 0.0245 | 0.0352 |  | 1.02 | 1.06 | 1.03 | 1.12
6 | NCI-H520 | 0.321 | 0.834 | 0.776 | 0.723 | 0.736 | 0.194 | 0.233 | 0.176 | 0.168 | 0.188 | 0.224 | 0.239 | 0.221 | 0.205 | 0.247 | 1.16 | 1.02 | 1.17 | 1.04 | 1.07
7 | NCI-H596 | 1.05 | 0.961 | 0.963 | 0.868 | 1.01 | 0.611 | 0.571 | 0.641 | 0.521 | 0.633 | 0.975 | 1.02 | 1.17 | 0.889 | 0.919 | 1.02 | 0.861 | 1.06 | 0.761 | 0.834
8 | NCI-H647 | 0.868 | 1 | 1.04 | 0.914 | 1.01 | 0.164 | 0.187 | 0.243 | 0.165 | 0.192 | 0.249 | 0.142 | 0.195 | 0.12 | 0.359 | 1.13 | 1.14 | 1.14 | 1.03 | 1.1
9 | NCI-H727 | 0.578 | 0.945 | 0.98 | 0.71 | 0.592 | 0.267 | 0.365 | 0.305 | 0.47 | 0.331 | 0.442 | 0.33 | 0.364 | 0.265 | 0.353 | 0.4 | 0.492 | 0.504 | 0.369 | 0.467
10 | NCI-H838 |  | 0.911 | 0.882 | 0.853 | 0.829 | 0.269 | 0.287 | 0.256 | 0.246 | 0.326 | 0.287 | 0.32 | 0.302 | 0.295 | 0.25 | 1.2 | 1.1 | 1.12 | 1.11 | 1.2
11 | NCI-H1355 | 0.913 | 1.2 | 1.02 | 1.12 | 0.977 |  | 0.676 | 0.682 | 0.611 | 0.524 |  | 0.543 | 0.664 | 0.658 | 0.62 |  | 0.872 | 0.9 | 0.904 | 0.971
12 | NCI-H1437 | 0.661 | 0.961 | 0.993 | 0.989 | 0.939 | 0.212 | 0.36 | 0.424 | 0.421 | 0.249 | 0.978 | 1.1 | 1.07 | 1.1 | 1.09 | 1.02 | 0.997 | 1.13 | 1.08 | 1.05
13 | NCI-H1650 | 0.902 | 0.982 | 1.05 | 0.915 | 0.693 |  | 0.319 | 0.3 | 0.271 | 0.223 |  | 0.216 | 0.194 | 0.199 | 0.217 |  | 0.93 | 1.19 | 1.08 | 1.32
14 | NCI-H1651 | 0.853 | 0.928 | 0.859 | 0.82 | 0.826 | 0.296 | 0.403 | 0.383 | 0.4 | 0.348 | 0.724 | 0.806 | 0.88 | 0.486 | 0.651 | 1.04 | 1.05 | 1.1 | 1.01 | 0.916
15 | NCI-H1666 | 1.18 | 1.08 | 1.08 | 0.992 | 1.03 | 0.725 | 0.846 | 0.766 | 0.753 | 0.757 | 1.01 | 0.984 | 0.968 | 0.941 | 0.982 | 1.03 | 0.696 | 0.932 | 0.8 | 1.03
16 | NCI-H1734 |  | 0.678 | 0.683 | 0.6 | 0.652 | 0.523 | 0.473 | 0.569 | 0.443 | 0.505 | 0.197 | 0.209 | 0.211 | 0.232 | 0.233 | 0.811 | 0.807 | 0.76 | 0.745 | 0.866
